Experimental data: article PMC8699261, “Structural Characterization of Rat Galectin-5, an N-Tailed Monomeric Proto-Type-like Galectin” (Biomolecules, 2021)
Values joined by “and” are separate entries in the source; they are usually repeats but may differ in a detail not shown here. Equal entries are not always repeated. Where two headings read alike, the source gives them in different places.

Assays:
rat galectin-5 (rGal-5) [1] = target: T1, rat galectin-5 (rGal-5) (Rattus norvegicus, UniProt P47967); assay: Glycan array (609 compounds) tested with biotinylated rGal-5, Alexa555-streptavidin detection; assay type: binding; conditions: 100 µg/mL biotinylated rGal-5; ranking in words
T1 construct: we used the full-length protein to obtain structural information on the N-terminal tail; made in house
T1 sequence (P47967 whole entry): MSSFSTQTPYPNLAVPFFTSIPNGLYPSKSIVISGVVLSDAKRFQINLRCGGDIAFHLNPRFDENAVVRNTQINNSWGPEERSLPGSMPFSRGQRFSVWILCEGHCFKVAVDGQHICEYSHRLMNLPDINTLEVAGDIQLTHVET
Description: The array consisted of 609 compounds covering glycans and polysaccharides printed onto commercial NHS-activated Slide H (Schott Nexterion, Jena, Germany), tested with 100 µg/mL biotinylated rGal-5 and involving Alexa555-labeled streptavidin (Thermo Fisher Scientific, Eugene, OR, USA) as second-step reagent for Innoscan 1100AL scanner-based (Innopsys, Carbonne, France) signal qualification, expressed in medium relative fluorescence units (RFU) and medium absolute deviation (MAD), as described previously. When the fluorescence intensity exceeded the background value by a factor of five, the respective signal was considered to be significant.

rat galectin-5 (rGal-5) [2] = target: T1, rat galectin-5 (rGal-5); assay: Isothermal titration calorimetry (ITC) of ligand binding to recombinant rGal-5
Description: The spacered B (type 2) tetrasaccharide was synthesized as described previously. Titrations were monitored in a PEAQ-ITC calorimeter (Malvern, Westborough, MA, USA), using a galectin-containing solution of 250 µL in PBS (10 mM Na2HPO4, 2 mM KH2PO4, 137 mM NaCl and 3 mM KCl at pH 6.8) containing 10 mM β-mercaptoethanol and injections at 150 s intervals of 2 µL ligand-containing solution (up to adding 36.4 µL) at 25 °C (750 rpm), as described. The protein concentration was 125 μM, and the ligand concentration in the syringe was 2.5 mM. In each titration, a fitted offset parameter was applied to account for potential background. Data processing was performed using the MiroCal PEAQ-ITC Analysis software.

[3] = 25 °C, individual titration, protein 125 μM, ligand 2.5 mM in syringe, PBS pH 6.8, read-out: Kd
[4] = (summarises Table 2), read-out: dissociation constant

Row | Stoichiometry (rat galectin-5 (rGal-5) [2]; 25 °C, individual titration) | ΔG0obs (rat galectin-5 (rGal-5) [2]; 25 °C, individual titration) | −TΔS0obs (rat galectin-5 (rGal-5) [2]; 25 °C, individual titration) | Kd (rat galectin-5 (rGal-5) [2]; [3]) | Kd (rat galectin-5 (rGal-5) [2]; [4]) | Molecule | signal intensity in glycan array (rat galectin-5 (rGal-5) [1]) | ΔH0obs (rat galectin-5 (rGal-5) [2]; 25 °C, individual titration)
1 | – | – | – | – | – | CC(=O)N[C@H]1C(O)O[C@H](CO)[C@@H](O[C@@H]2O[C@H](CO)[C@H](O)[C@H](O[C@H]3O[C@H](CO)[C@H](O)[C@H](O)[C@H]3O)[C@H]2O)[C@@H]1O (some centres unmarked) | frontrunners in terms of signal intensity | –
2 | 0.95 ± 0.05 and 0.99 ± 0.06 | -5.35 kcal/mol and -5.22 kcal/mol | -0.36 kcal/mol and -0.18 kcal/mol | 121 µM and 151 µM | 136 ± 16 µM | OC[C@H]1O[C@@H](O[C@H]2[C@H](O)[C@@H](O)C(O)O[C@@H]2CO)[C@H](O)[C@@H](O)[C@H]1O (mixture of isomers) [Lactose, lactose] | – | -4.99 ± 0.08 kcal/mol and -5.03 ± 0.41 kcal/mol
3 | 0.92 ± 0.01 and 0.94 ± 0.20 | -6.1 kcal/mol and -6.0 kcal/mol | 3.87 kcal/mol and 4.43 kcal/mol | 28.6 µM and 32.3 µM | 30.5 ± 1.9 µM | CC(=O)N[C@H]1C(O)O[C@H](CO)[C@@H](O[C@@H]2O[C@H](CO)[C@H](O)[C@H](O)[C@H]2O)[C@@H]1O (some centres unmarked) [LacNAc, N-acetyllactosamine] | – | -10.0 ± 0.2 kcal/mol and -10.5 ± 2.6 kcal/mol
4 | 0.98 ± 0.01 and 0.94 ± 0.01 | -7.11 kcal/mol | -1.37 kcal/mol and -1.51 kcal/mol | 5 µM and 6.1 µM | 5.5 ± 0.6 µM | histo-blood-group B (type 2) tetrasaccharide [Tetrasacc haride] | frontrunners in terms of signal intensity | -5.74 ± 0.03 kcal/mol and -5.60 ± 0.03 kcal/mol
